Laboratory results taken from ChEMBL document CHEMBL4265965, “Dichloroacetophenones targeting at pyruvate dehydrogenase kinase 1 with improved selectivity and antiproliferative activity: Synthesis and structure-activity relationships” (Bioorg Med Chem Lett, 2018).
The source made the active and inactive calls. The rule behind the calls is not given here.

Key:
A549 [1] = experiment: Antiproliferative activity against human A549 cells assessed as inhibition of cell proliferation at 12 uM after 72 hrs by MTT assay relative to control; assay type: functional; conditions: for inhibition at 12 µM: A549, 72 h
A549 [2] = experiment: Antiproliferative activity against human A549 cells assessed as inhibition of cell proliferation at 2 uM after 72 hrs by MTT assay relative to control; assay type: functional; conditions: for inhibition at 2 µM: A549, 72 h
NCI-H1650 [3] = experiment: Antiproliferative activity against human NCI-H1650 cells assessed as inhibition of cell proliferation at 6 uM after 72 hrs by MTT assay relative to control; assay type: functional; conditions: for inhibition at 6 µM: NCI-H1650, 72 h
NCI-H1975 [4] = experiment: Antiproliferative activity against human NCI-H1975 cells assessed as inhibition of cell proliferation at 2 uM after 72 hrs by MTT assay relative to control; assay type: functional; conditions: for inhibition at 2 µM: NCI-H1975, 72 h
NCI-H1975 [5] = experiment: Antiproliferative activity against human NCI-H1975 cells assessed as inhibition of cell proliferation at 12 uM after 72 hrs by MTT assay relative to control; assay type: functional; conditions: for inhibition at 12 µM: NCI-H1975, 72 h
A549 [6] = experiment: Antiproliferative activity against human A549 cells assessed as inhibition of cell proliferation at 6 uM after 72 hrs by MTT assay relative to control; assay type: functional; conditions: for inhibition at 6 µM: A549, 72 h
NCI-H1975 [7] = experiment: Antiproliferative activity against human NCI-H1975 cells assessed as inhibition of cell proliferation at 6 uM after 72 hrs by MTT assay relative to control; assay type: functional; conditions: for inhibition at 6 µM: NCI-H1975, 72 h
NCI-H1650 [8] = experiment: Antiproliferative activity against human NCI-H1650 cells assessed as inhibition of cell proliferation at 2 uM after 72 hrs by MTT assay relative to control; assay type: functional; conditions: for inhibition at 2 µM: NCI-H1650, 72 h
NCI-H1650 [9] = experiment: Antiproliferative activity against human NCI-H1650 cells assessed as inhibition of cell proliferation at 12 uM after 72 hrs by MTT assay relative to control; assay type: functional; conditions: for inhibition at 12 µM: NCI-H1650, 72 h
Sus scrofa = species on record: Sus scrofa; experiment: Inhibition of porcine PDK1 assessed as activation of pyruvate dehydrogenase complex at 1 uM measured after 3 mins
[10] = molecular target: [Pyruvate dehydrogenase (acetyl-transferring)] kinase isozyme 1, mitochondrial (Homo sapiens, UniProt Q15118); experiment: Inhibition of recombinant human N-terminal His6/Sumo-tagged PDK1 (29 to 436 residues) expressed in Escherichia coli BL21 at 1 uM by kinase-glo luminescence assay relative to control

Compound | inhibition at 12 µM (A549 [1]) [%] | inhibition (A549 [2]) | inhibition at 6 µM (NCI-H1650 [3]) [%] | inhibition (NCI-H1975 [4]) | inhibition at 12 µM (NCI-H1975 [5]) [%] | inhibition at 6 µM (A549 [6]) [%] | inhibition at 6 µM (NCI-H1975 [7]) [%] | inhibition (NCI-H1650 [8]) | inhibition at 12 µM (NCI-H1650 [9]) [%] | inhibition (Sus scrofa) | inhibition [10] | inhibition (A549 [1]) | inhibition (NCI-H1650 [3]) | inhibition (NCI-H1975 [5]) | inhibition (A549 [6]) | inhibition (NCI-H1975 [7]) | inhibition (NCI-H1650 [9]) | inhibition at 2 µM (A549 [2]) [%] | inhibition at 2 µM (NCI-H1975 [4]) [%] | inhibition at 2 µM (NCI-H1650 [8]) [%]
O=C(Nc1ccccc1)C(Cl)Cl | 20.3 | inactive | 15.5 | inactive | 30.2 | 14.6 | 21.6 | inactive | 21.3 | inactive | inactive |  |  |  |  |  |  |  |  | 
O=C(c1cccnc1)C(Cl)(Cl)Cl |  | inactive |  | inactive |  |  |  | inactive |  | inactive | inactive | inactive | inactive | inactive | inactive | inactive | inactive |  |  | 
Cc1ccccc1NC(=O)C(Cl)Cl | 13.2 | inactive | 14.5 | inactive | 22.9 | 9.9 | 19.5 | inactive | 15.4 | inactive | inactive |  |  |  |  |  |  |  |  | 
CCCCCOc1ccc(C(=O)C(Cl)Cl)cc1[N+](=O)[O-] | 96.9 |  | 36.6 |  | 98.1 | 80.2 | 93.2 | inactive | 68 | Active | Active |  |  |  |  |  |  | 32.3 | 62.9 | 
CCCOc1ccc(C(=O)C(Cl)Cl)cc1[N+](=O)[O-] | 68.4 | inactive | 38 |  | 91.6 | 19.5 | 37.8 |  | 99.9 | Active | Active |  |  |  |  |  |  |  | 3.4 | 7.6
O=C(c1ccc(OCCCBr)c([N+](=O)[O-])c1)C(Cl)Cl | 97.7 |  | 48.1 |  | 99 | 84.3 | 94.5 |  | 74.6 | Active | Active |  |  |  |  |  |  | 26.8 | 60.8 | 11.5
O=C(c1ccc(OCc2ccccc2)c([N+](=O)[O-])c1)C(Cl)Cl | 99.3 |  | 29.9 |  | 99 | 87.9 | 98.6 | inactive | 67.3 | Active | Active |  |  |  |  |  |  | 29.9 | 58.4 | 
O=C(c1ccccn1)C(Cl)Cl | 31.5 |  | 39.6 |  | 98.5 | 15.3 | 73.1 |  | 90.5 | 10.2% | inactive |  |  |  |  |  |  | 3.3 | 15.9 | 14.8
CCc1ccc(C(=O)C(Cl)Cl)cc1 | 92.8 |  | 79.1 |  | 96.5 | 81.4 | 97.6 |  | 99.3 |  | 44% |  |  |  |  |  |  | 31.5 | 55.4 | 30.7
CCOc1ccc(C(=O)C(Cl)Cl)cc1[N+](=O)[O-] | 99 |  | 88 |  | 98.2 | 88 | 94.1 |  | 99.3 | Active | Active |  |  |  |  |  |  | 37.8 | 62.3 | 57.3
O=C(c1ccc(OCCBr)c([N+](=O)[O-])c1)C(Cl)Cl | 63.7 |  |  |  | 80 | 24.5 | 53.2 | inactive | 23 | Active | Active |  | inactive |  |  |  |  | 9.5 | 15.2 | 
O=C(c1ccc(OCCCCBr)c([N+](=O)[O-])c1)C(Cl)Cl | 72.9 |  | 38.8 |  | 86.7 | 33.4 | 54.7 |  | 66.7 | Active | Active |  |  |  |  |  |  | 5.7 | 15 | 21.8
O=C(CCl)c1cccnc1 |  | inactive |  | inactive |  |  |  | inactive |  | inactive | inactive | inactive | inactive | inactive | inactive | inactive | inactive |  |  | 
Cc1ccc(C(=O)C(Cl)Cl)cc1 | 80 | inactive | 54.3 |  | 95.7 | 33.2 | 83.1 |  | 78.4 |  | 19.7% |  |  |  |  |  |  |  | 28.6 | 31.2
O=C(c1cccnc1)C(Cl)Cl |  | inactive | 29.1 | inactive | 52 |  | 9.3 | inactive | 56.5 | inactive | inactive | inactive |  |  | inactive |  |  |  |  | 
Cc1ccccc1C(=O)C(Cl)Cl | 79.8 |  | 46.7 |  | 93 | 62.2 | 69.8 |  | 69.6 |  | inactive |  |  |  |  |  |  | 23.7 | 39.8 | 27.2
O=C(c1ccccc1Cl)C(Cl)Cl | 27.9 | inactive | 19.7 |  | 71 | 4.6 | 39 |  | 42.9 |  | inactive |  |  |  |  |  |  |  | 12.6 | 10.3
O=C(c1ccc(Cl)c([N+](=O)[O-])c1)C(Cl)Cl | 99.8 |  | 100 |  | 100 | 86.7 | 99.8 |  | 100 |  | 41.7% |  |  |  |  |  |  | 34.7 | 98.4 | 96.3
O=C(c1ccccc1I)C(Cl)Cl | 41.2 | inactive | 57.1 |  | 96.5 | 7.8 | 90.8 |  | 99.4 |  | inactive |  |  |  |  |  |  |  | 28.6 | 21
CCCc1ccc(C(=O)C(Cl)Cl)cc1[N+](=O)[O-] | 65.2 | inactive | 60.2 |  | 99.8 | 8.9 | 69.5 |  | 99.8 |  | inactive |  |  |  |  |  |  |  | 31.5 | 29.8
O=C(c1ccccc1[N+](=O)[O-])C(Cl)Cl | 6.1 |  | 22.4 |  | 93.7 | 4.4 | 61.5 | inactive | 49.9 |  | inactive |  |  |  |  |  |  | 1.9 | 4.8 | 
O=C(c1ccccc1Br)C(Cl)Cl | 17.5 |  |  | inactive | 49.5 | 6.1 | 14.3 | inactive | 0.4 |  | inactive |  | inactive |  |  |  |  | 1.4 |  | 
Cc1cc(C(=O)C(Cl)Cl)ccc1Cl | 81 |  | 79.7 |  | 99.2 | 51.7 | 97.8 |  | 98.8 |  | 10.2% |  |  |  |  |  |  | 13.2 | 46.7 | 38.8
O=C(c1ccc(Cl)c(Cl)c1)C(Cl)Cl | 96.7 |  | 92.7 |  | 98.4 | 74.5 | 95.8 |  | 100 |  | inactive |  |  |  |  |  |  | 42.1 | 74.1 | 54
